In US20250382305A1 (PTC THERAPEUTICS, INC., priority 2022, published 2025):

What was measured:
[1] = tested on: Total ATXN3 (tATXN3) protein; test: Endogenous Total ATXN3 (tATXN3) Protein Assay (MSD immunoassay of cell lysates); format: cell-based; conditions: average IC50, total ATXN3 protein in cell lysate after 48 h with compound (Table 1)
How it was run: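 By electrochemiluminescent MSD sandwich immunoassay (mouse monoclonal capture, rabbit monoclonal and SULFO-TAG anti-rabbit detection), endogenous ATXN3 was quantified in lysates of cells treated 48 h at 37° C at 10,000 cells/well. Treatment used a 7-point 3.16-fold duplicate dilution series, with average IC50 grouped into star categories.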

ATXN3 pre-mRNA = test: RT-qPCR Assay to Quantify Exon 4 Skipping in ATXN3 pre-mRNA in Cells; format: cell-based; conditions: percent exon 4 skipping in ATXN3 pre-mRNA, RT-qPCR of cell lysates; average IC50
How it was run: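 IC50 derives from a dose-response fit of percent exon 4 skipping, quantified by RT-qPCR on crude lysates. Compounds tested as 7-point 3.16-fold dilutions in duplicate; cells (10,000/well) were exposed for 24 h at 37 °C before lysis.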

Row | Compound | IC50 [1] | IC50 (ATXN3 pre-mRNA)
1 | N[C@@H]1CC=CC[C@H]1c1sc2c(NCc3ccccc3)nc(Cl)nc2c1I [Compound 414, 6-((1R,6R)-6-aminocyclohex-3-en-1-yl)-N-benzyl-2-chloro-7-iodothieno[3,2-d]pyrimidin-4-amine] | 300 to 1000 nM | 30 to 300 nM
2 | N[C@@H]1CC=CC[C@H]1c1sc2c(NCc3ccsc3)cc(Cl)nc2c1Br [Compound 415, 2-((1R,6R)-6-aminocyclohex-3-en-1-yl)-3-bromo-5-chloro-N-(thiophen-3-ylmethyl)thieno[3,2-b]pyridin-7-amine] | 300 to 1000 nM | 300 to 1000 nM
3 | N[C@@H]1CC=CC[C@H]1c1c(I)c2nc(Cl)nc(NCc3ccccc3)c2n1C(F)F [Compound 424, 6-((1R,6R)-6-aminocyclohex-3-en-1-yl)-N-benzyl-2-chloro-5-(difluoromethyl)-7-iodo-5H-pyrrolo[3,2-d]pyrimidin-4-amine] | 30 to 300 nM | ≤ 30 nM
4 | N[C@@H]1CCCO[C@H]1c1c(Br)c2nc(Cl)cc(NCc3ccco3)c2n1C(F)F [Compound 426, 2-((2R,3R)-3-aminotetrahydro-2H-pyran-2-yl)-3-bromo-5-chloro-1-(difluoromethyl)-N-(furan-2-ylmethyl)-1H-pyrrolo[3,2-b]pyridin-7-amine] | 300 to 1000 nM | 30 to 300 nM
5 | N[C@@H]1CC=CC[C@H]1c1c(I)c2nc(Cl)cc(NCc3cccs3)c2n1C(F)F [Compound 427, 2-((1R,6R)-6-aminocyclohex-3-en-1-yl)-5-chloro-1-(difluoromethyl)-3-iodo-N-(thiophen-2-ylmethyl)-1H-pyrrolo[3,2-b]pyridin-7-amine] | 30 to 300 nM | ≤ 30 nM
6 | CC#CCNc1cc(Cl)nc2c(Br)c([C@@H]3CCCC[C@H]3N)sc12 [Compound 428, 2-((1R,2R)-2-aminocyclohexyl)-3-bromo-N-(but-2-yn-1-yl)-5-chlorothieno[3,2-b]pyridin-7-amine] | 300 to 1000 nM | 300 to 1000 nM
7 | C#Cc1c([C@@H]2CCCC[C@H]2N)sc2c(NCc3ccccc3F)cc(Cl)nc12 [Compound 430, 2-((1R,2R)-2-aminocyclohexyl)-5-chloro-3-ethynyl-N-(2-fluorobenzyl)thieno[3,2-b]pyridin-7-amine] | 30 to 300 nM | 30 to 300 nM
8 | N[C@@H]1CCCC[C@H]1c1sc2c(NCc3ccncc3)cc(Cl)nc2c1Br [Compound 432, 2-((1R,2R)-2-aminocyclohexyl)-3-bromo-5-chloro-N-(pyridin-4-ylmethyl)thieno[3,2-b]pyridin-7-amine] | 30 to 300 nM | 30 to 300 nM
9 | N[C@@H]1CC=CC[C@H]1c1sc2c(NCc3ccncc3)cc(Cl)nc2c1Cl [Compound 433, 2-((1R,6R)-6-aminocyclohex-3-en-1-yl)-3,5-dichloro-N-(pyridin-4-ylmethyl)thieno[3,2-b]pyridin-7-amine] | 30 to 300 nM | 30 to 300 nM
10 | N[C@@H]1CC=CC[C@H]1c1sc2c(NCc3ccccc3)nc(Cl)nc2c1Br [Compound 434, 6-((1R,6R)-6-aminocyclohex-3-en-1-yl)-N-benzyl-7-bromo-2-chlorothieno[3,2-d]pyrimidin-4-amine] | 30 to 300 nM | 30 to 300 nM
11 | Cc1c([C@@H]2CC=CC[C@H]2N)sc2c(NCc3ccncc3F)nc(Cl)nc12 [Compound 435, 6-((1R,6R)-6-aminocyclohex-3-en-1-yl)-2-chloro-N-((3-fluoropyridin-4-yl)methyl)-7-methylthieno[3,2-d]pyrimidin-4-amine] | 30 to 300 nM | ≤ 30 nM
12 | Cc1c([C@@H]2CC=CC[C@H]2N)sc2c(NCc3ccncc3)nc(Cl)nc12 [Compound 436, 6-((1R,6R)-6-aminocyclohex-3-en-1-yl)-2-chloro-7-methyl-N-(pyridin-4-ylmethyl)thieno[3,2-d]pyrimidin-4-amine] | > 1000 nM | 300 to 1000 nM
13 | CC#CCNc1cc(Cl)nc2c(Br)c([C@@H]3CC(C)=C(C)C[C@H]3N)sc12 [Compound 438, 2-((1R,6R)-6-amino-3,4-dimethylcyclohex-3-en-1-yl)-3-bromo-N-(but-2-yn-1-yl)-5-chlorothieno[3,2-b]pyridin-7-amine] | 300 to 1000 nM | 30 to 300 nM
14 | N[C@@H]1CC=CC[C@H]1c1sc2c(NCc3ccncc3F)nc(Cl)nc2c1Cl [Compound 439, 6-((1R,6R)-6-aminocyclohex-3-en-1-yl)-2,7-dichloro-N-((3-fluoropyridin-4-yl)methyl)thieno[3,2-d]pyrimidin-4-amine] | 300 to 1000 nM | 300 to 1000 nM
15 | N[C@@H]1CC=CC[C@H]1c1sc2c(NCc3ccncc3)nc(Cl)nc2c1Cl [Compound 440, 6-((1R,6R)-6-aminocyclohex-3-en-1-yl)-2,7-dichloro-N-(pyridin-4-ylmethyl)thieno[3,2-d]pyrimidin-4-amine] | > 1000 nM | 300 to 1000 nM
16 | Cc1c([C@@H]2CC=CC[C@H]2N)sc2c(NCc3nccs3)nc(Cl)nc12 [Compound 441, 6-((1R,6R)-6-aminocyclohex-3-en-1-yl)-2-chloro-7-methyl-N-(thiazol-2-ylmethyl)thieno[3,2-d]pyrimidin-4-amine] | 30 to 300 nM | 30 to 300 nM
17 | C/C=C\CNc1cc(Cl)nc2c(Cl)c([C@H]3CCCC[C@@H]3N)sc12 [Compound 442, 2-((1S,2S)-2-aminocyclohexyl)-N-((Z)-but-2-en-1-yl)-3,5-dichlorothieno[3,2-b]pyridin-7-amine] | 30 to 300 nM | 30 to 300 nM
18 | CC1=C(C)C[C@@H](c2sc3c(NCc4ccco4)cc(Cl)nc3c2Cl)[C@H](N)C1 [Compound 444, 2-((1R,6R)-6-amino-3,4-dimethylcyclohex-3-en-1-yl)-3,5-dichloro-N-(furan-2-ylmethyl)thieno[3,2-b]pyridin-7-amine] | > 1000 nM | 300 to 1000 nM
19 | CCOC(=O)C1=CC[C@@H](c2sc3c(NCc4cccs4)cc(Cl)nc3c2C)[C@@H](N)C1 [Compound 445, ethyl (4R,5S)-5-amino-4-(5-chloro-3-methyl-7-((thiophen-2-ylmethyl)amino)thieno[3,2-b]pyridin-2-yl)cyclohex-1-ene-1-carboxylate] | 300 to 1000 nM | 300 to 1000 nM
20 | N[C@H]1CC=CC[C@@H]1c1sc2c(NCc3cccs3)cc(Cl)nc2c1C#Cc1ccncc1Cl [Compound 447, 2-((1S,6S)-6-aminocyclohex-3-en-1-yl)-5-chloro-3-((3-chloropyridin-4-yl)ethynyl)-N-(thiophen-2-ylmethyl)thieno[3,2-b]pyridin-7-amine] | 300 to 1000 nM | 300 to 1000 nM

Second part, the compound after the results:

Row | IC50 [1] | IC50 (ATXN3 pre-mRNA) | Compound
21 | 30 to 300 nM | 30 to 300 nM | N[C@@H]1CCCO[C@H]1c1c(I)c2nc(Cl)nc(NCc3cccs3)c2n1C(F)F [Compound 416, 6-((2R,3R)-3-aminotetrahydro-2H-pyran-2-yl)-2-chloro-5-(difluoromethyl)-7-iodo-N-(thiophen-2-ylmethyl)-5H-pyrrolo[3,2-d]pyrimidin-4-amine]
22 | ≤ 30 nM | ≤ 30 nM | N[C@@H]1CC=CC[C@H]1c1c(Cl)c2nc(Cl)cc(NCc3ccccc3)c2n1C(F)F [Compound 417, 2-((1R,6R)-6-aminocyclohex-3-en-1-yl)-N-benzyl-3,5-dichloro-1-(difluoromethyl)-1H-pyrrolo[3,2-b]pyridin-7-amine]
23 | 30 to 300 nM | 30 to 300 nM | Cc1c([C@@H]2CC=CC[C@H]2N)sc2c(NCc3ccsc3)cc(Cl)nc12 [Compound 419, 2-((1R,6R)-6-aminocyclohex-3-en-1-yl)-5-chloro-3-methyl-N-(thiophen-3-ylmethyl)thieno[3,2-b]pyridin-7-amine]
24 | 30 to 300 nM | 30 to 300 nM | N[C@H]1CC=CC[C@@H]1c1c(Cl)c2nc(Cl)cc(NCc3ccccc3)c2n1C(F)F [Compound 420, 2-((1S,6S)-6-aminocyclohex-3-en-1-yl)-N-benzyl-3,5-dichloro-1-(difluoromethyl)-1H-pyrrolo[3,2-b]pyridin-7-amine]
25 | 30 to 300 nM | 30 to 300 nM | N[C@@H]1CCCO[C@H]1c1c(I)c2nc(Cl)nc(NCc3ccco3)c2n1C(F)F [Compound 422, 6-((2R,3R)-3-aminotetrahydro-2H-pyran-2-yl)-2-chloro-5-(difluoromethyl)-N-(furan-2-ylmethyl)-7-iodo-5H-pyrrolo[3,2-d]pyrimidin-4-amine]
26 | 30 to 300 nM | ≤ 30 nM | N[C@@H]1CCCO[C@H]1c1c(Cl)c2nc(Cl)nc(NCc3cccs3)c2n1C(F)F [Compound 423, 6-((2R,3R)-3-aminotetrahydro-2H-pyran-2-yl)-2,7-dichloro-5-(difluoromethyl)-N-(thiophen-2-ylmethyl)-5H-pyrrolo[3,2-d]pyrimidin-4-amine]
27 | ≤ 30 nM | ≤ 30 nM | CC#CCNc1cc(Cl)nc2c(Br)c([C@@H]3CC=CC[C@H]3N)sc12 [Compound 429, 2-((1R,6R)-6-aminocyclohex-3-en-1-yl)-3-bromo-N-(but-2-yn-1-yl)-5-chlorothieno[3,2-b]pyridin-7-amine]
28 | ≤ 30 nM | ≤ 30 nM | N[C@@H]1CC=CC[C@H]1c1sc2c(NCc3ccco3)nc(Cl)nc2c1Cl [Compound 437, 6-((1R,6R)-6-aminocyclohex-3-en-1-yl)-2,7-dichloro-N-(furan-2-ylmethyl)thieno[3,2-d]pyrimidin-4-amine]
29 | ≤ 30 nM | ≤ 30 nM | N#Cc1cc(NCc2ccco2)c2sc([C@@H]3CC=CC[C@H]3N)c(Cl)c2n1 [Compound 443, 2-((1R,6R)-6-aminocyclohex-3-en-1-yl)-3-chloro-7-((furan-2-ylmethyl)amino)thieno[3,2-b]pyridine-5-carbonitrile]
30 | ≤ 30 nM | ≤ 30 nM | Cc1c([C@H]2CC=C(C(=O)O)C[C@@H]2N)sc2c(NCc3cccs3)cc(Cl)nc12 [Compound 446, (4S,5S)-5-amino-4-(5-chloro-3-methyl-7-((thiophen-2-ylmethyl)amino)thieno[3,2-b]pyridin-2-yl)cyclohex-1-ene-1-carboxylic acid]
